Results taken from BindingDB's records for doi:10.7270/Q2CN72C0 (Burnham Center For Chemical Genomics, 2010).

Target: T1, Nucleotide-binding oligomerization domain-containing protein 1 (Homo sapiens, UniProt Q9Y239)
T1 sequence (Q9Y239 whole entry): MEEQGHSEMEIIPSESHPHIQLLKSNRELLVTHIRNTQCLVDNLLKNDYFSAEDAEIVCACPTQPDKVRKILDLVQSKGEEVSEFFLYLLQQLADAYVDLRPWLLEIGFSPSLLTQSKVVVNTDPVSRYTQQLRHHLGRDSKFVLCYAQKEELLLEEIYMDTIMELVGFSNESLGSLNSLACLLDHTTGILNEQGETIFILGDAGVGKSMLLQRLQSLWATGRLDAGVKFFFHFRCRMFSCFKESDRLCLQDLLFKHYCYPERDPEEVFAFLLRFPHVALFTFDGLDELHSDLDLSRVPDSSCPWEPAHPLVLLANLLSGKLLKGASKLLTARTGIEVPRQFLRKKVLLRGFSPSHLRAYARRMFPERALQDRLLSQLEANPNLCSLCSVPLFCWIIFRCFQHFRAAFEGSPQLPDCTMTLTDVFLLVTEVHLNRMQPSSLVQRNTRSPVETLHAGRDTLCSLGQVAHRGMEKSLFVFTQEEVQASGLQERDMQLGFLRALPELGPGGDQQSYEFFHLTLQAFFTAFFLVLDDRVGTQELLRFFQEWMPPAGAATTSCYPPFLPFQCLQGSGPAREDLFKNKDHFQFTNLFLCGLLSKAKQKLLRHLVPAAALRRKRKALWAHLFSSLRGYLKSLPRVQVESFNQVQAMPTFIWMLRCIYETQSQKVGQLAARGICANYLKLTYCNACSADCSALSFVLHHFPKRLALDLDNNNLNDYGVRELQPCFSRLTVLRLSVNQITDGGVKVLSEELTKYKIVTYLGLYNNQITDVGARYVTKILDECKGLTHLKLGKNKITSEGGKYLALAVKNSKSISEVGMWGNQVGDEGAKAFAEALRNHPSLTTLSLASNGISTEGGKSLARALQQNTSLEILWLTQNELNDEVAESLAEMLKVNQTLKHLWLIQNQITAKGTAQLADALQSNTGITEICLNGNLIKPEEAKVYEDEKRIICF
Experiment: inhibition of NOD1-driven NF-kB reporter – cell-based, luminescence, uHTS, primary screen (AID 1578)

SMILES: Cc1cc(CN=Nc2ncnc(N)c2[N+](=O)[O-])c(C)n1-c1ccccc1
- EC50: 4.14 µM

SMILES: Cc1cc(SCC(=O)OCC(=O)C(C#N)c2nc3ccccc3[nH]2)c(C)cc1Br (stereo not given)
- EC50: > 20 µM

SMILES: O=C1C(=O)N(c2nccs2)C(c2ccccc2)C1C(=O)c1ccc2c(c1)OCCO2 (stereo not given)
- EC50: 11.5 µM

SMILES: Oc1cccc(CN=Nc2ccc(Cl)nn2)c1O
- EC50: > 20 µM

SMILES: CCCOC1=CC(=O)C(C=NNC(=S)Nc2ccccc2[N+](=O)[O-])C=C1 (stereo not given) [1-(2-nitrophenyl)-3-[[(E)-(6-oxo-4-propoxy-1-cyclohexa-2,4-dienylidene)methyl]amino]thiourea]
- EC50: 11.9 µM

SMILES: C=CCN1C(=O)C(=NNC(=S)Nc2cccc(C)c2)c2ccccc21 [1-(3-methylphenyl)-3-[(Z)-(2-oxidanylidene-1-prop-2-enyl-indol-3-ylidene)amino]thiourea]
- EC50: 1.09 µM

SMILES: CCCCCCC1=Cc2c/c(=C3/NN=C(c4ccccc4OC)O3)c(=O)oc2=CC1=O [6-Hexyl-7-hydroxy-3-[5-(2-methoxy-phenyl)-[1,3,4]oxadiazol-2-yl]-chromen-2-one]
- EC50: 6.54 µM

SMILES: CCCCCCC1=Cc2c/c(=C3/NN/C(=C4/C=CC=CC4=O)O3)c(=O)oc2=CC1=O [(3E)-6-hexyl-3-[(5E)-5-(6-oxocyclohexa-2,4-dien-1-ylidene)-1,3,4-oxadiazolidin-2-ylidene]chromene-2,7-dione]
- EC50: 4.51 µM

SMILES: Cc1ccc(O)c(/N=C/C2=CC(Cc3ccccc3)C=C([N+](=O)[O-])C2=O)c1 (stereo not given) [(6E)-6-[[(5-methyl-2-oxidanyl-phenyl)amino]methylidene]-2-nitro-4-(phenylmethyl)cyclohexa-2,4-dien-1-one]
- EC50: 6.21 µM

SMILES: Cc1ccc(C)c(SCC(=O)OCC(=O)C(C#N)c2nc3ccccc3[nH]2)c1 (stereo not given) [MLS000392255]
- EC50: > 20 µM

SMILES: Cc1cc(CN=Nc2nc(N)ncc2[N+](=O)[O-])c(C)n1-c1ccccc1F [MLS000392273]
- EC50: 4.64 µM

SMILES: COc1ccc(NS(=O)(=O)c2ccc(N=NC(C)c3ccncc3)c([N+](=O)[O-])c2)cc1 (stereo not given) [MLS000393523]
- EC50: 4.33 µM

SMILES: O=C1C([N+](=O)[O-])=CC(Cl)=CC1CN=Nc1ccccn1 (stereo not given) [MLS000539830]
- EC50: 9.12 µM

SMILES: CCOC(=O)c1sc(N2C(=O)C(=O)C(C(=O)c3ccco3)C2c2cccc([N+](=O)[O-])c2)nc1C (stereo not given) [MLS001082998]
- EC50: > 20 µM

SMILES: Oc1c(Br)cc(Br)cc1CN=Nc1ccc(Cl)nn1 [MLS001171109]
- EC50: > 20 µM

SMILES: C=CCN1C(=O)C(=NNC(=S)Nc2cccc(OC)c2)c2ccccc21 [SMR000132469]
- EC50: > 20 µM

SMILES: CCOc1ccc(-c2csc(/C(C#N)=C/C3C=CC(=O)C([N+](=O)[O-])=C3)n2)cc1 (stereo not given) [SMR000237723]
- EC50: 1.52 µM

SMILES: CN1C(=O)C(=NNC(=S)Nc2ccccc2F)c2cc(S(=O)(=O)N3CCOCC3)ccc21 [SMR000314843]
- EC50: > 20 µM

SMILES: Cc1cc(N=NCc2ccccc2[N+](=O)[O-])nc(-n2nc(C)cc2C)n1 [SMR000426946]
- EC50: 6.21 µM

SMILES: COc1cc(CN=Nc2nc3c(c(=O)n(C)c(=O)n3C)n2Cc2ccccc2)ccc1OC(=O)c1ccco1 [[4-[[(7-benzyl-1,3-dimethyl-2,6-dioxopurin-8-yl)hydrazinylidene]methyl]-2-methoxyphenyl] furan-2-carboxylate]
- EC50: 5.22 µM
